Source: ChEMBL document CHEMBL5108022, “Structure-Activity relationship study of benzothiophene oxobutanoic acid analogues leading to novel stimulator of interferon gene (STING) agonists” (Eur J Med Chem, 2022)
Calls of active or inactive are those of the source. The calls are words filed in the database; no cut-off is given here.

Assays:
[1] = target: T1, Stimulator of interferon genes protein (Mus musculus) (UniProt Q3TBT3); experiment: Agonist activity at STING in mouse RAW-Lucia ISG cells assessed as fold change in ISG activation at 50 uM incubated for 24 hrs by Quanti-Luc or Quanti-blue reagent based luminescence assay; format: cell-based
T1 sequence (whole entry): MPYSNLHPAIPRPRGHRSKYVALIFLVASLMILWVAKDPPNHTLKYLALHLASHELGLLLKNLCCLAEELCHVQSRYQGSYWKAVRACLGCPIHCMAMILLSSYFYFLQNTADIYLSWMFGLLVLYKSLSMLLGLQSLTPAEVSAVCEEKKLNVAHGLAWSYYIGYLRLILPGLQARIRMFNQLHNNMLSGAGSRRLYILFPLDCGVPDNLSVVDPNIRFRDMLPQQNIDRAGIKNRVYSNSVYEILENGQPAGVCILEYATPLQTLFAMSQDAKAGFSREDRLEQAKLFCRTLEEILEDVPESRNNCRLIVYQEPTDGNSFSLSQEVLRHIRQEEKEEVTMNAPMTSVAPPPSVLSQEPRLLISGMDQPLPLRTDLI

[2] = target: T2, Stimulator of interferon genes protein (Homo sapiens, UniProt Q86WV6); experiment: Agonist activity at STING in human THP1-Blue ISG cells assessed as fold change in ISG activation at 10 uM incubated for 24 hrs by Quanti-Luc or Quanti-blue reagent based luminescence assay; format: cell-based; conditions: filed as agonist
Target sequence in this assay (Q86WV6 whole entry): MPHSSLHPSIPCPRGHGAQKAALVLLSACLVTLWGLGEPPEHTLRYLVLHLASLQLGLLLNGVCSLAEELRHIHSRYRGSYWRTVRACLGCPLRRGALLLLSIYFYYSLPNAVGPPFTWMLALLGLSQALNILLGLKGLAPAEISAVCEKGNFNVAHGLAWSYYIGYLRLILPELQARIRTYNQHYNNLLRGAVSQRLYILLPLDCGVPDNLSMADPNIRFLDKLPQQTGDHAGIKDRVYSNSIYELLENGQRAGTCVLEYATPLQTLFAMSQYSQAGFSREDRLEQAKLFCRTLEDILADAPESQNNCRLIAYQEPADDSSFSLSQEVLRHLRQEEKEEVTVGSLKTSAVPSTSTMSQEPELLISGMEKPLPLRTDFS

CT26 [3] = experiment: Antitumor activity against mouse CT26 cells implanted in immunocompetent Balb/c mouse assessed as suppression of tumor growth at 250 ug, IT administered on day 1,4 and 7 and measured twice per week; format: functional, cell-based; conditions: dose 250.0 µg, time 7.0 day
[4] = Toxicity in STING-knockout C57BL/6 mouse implanted with mouse B16-F10 cells assessed as reduction in body weight at 50 ug, IT administered on day 1,4 and 7 and measured twice per week for 8 days; format: cell-based; conditions: in vivo, other, 192 h, dose 50 µg, time 8 day
[5] = Toxicity in C57BL/6 mouse implanted with mouse B16-F10 cells assessed as reduction in body weight at 50 ug, IT administered on day 1,4 and 7 and measured twice per week for 8 days; format: cell-based; conditions: in vivo, other, 192 h, dose 50 µg, time 8 day
[6] = target: T2, Stimulator of interferon genes protein; experiment: Displacement of cGAMP from human full length STING HAQ variant expressed in insect microsomes incubated for 16 hrs by TopCount scintillation counting method; parameters: species or system Microsome
Target sequence in this assay (Q86WV6 whole entry, looked up, stated change not applied): as the sequence (Q86WV6 whole entry) above

[7] = target: T2, Stimulator of interferon genes protein; experiment: Agonist activity at STING in human THP-1 cells assessed as increase in IFN-beta secretion incubated for 5 hrs by AlphaLISA assay; format: cell-based
Target sequence in this assay (Q86WV6 whole entry): as above

[8] = target: T2, Stimulator of interferon genes protein; experiment: Binding affinity to STING HAQ variant (unknown origin)
Target sequence in this assay (Q86WV6 whole entry, looked up, stated change not applied): as the sequence (Q86WV6 whole entry) above

[9] = target: T2, Stimulator of interferon genes protein; experiment: Agonist activity at STING in human THP1-Dual cells assessed as ISG pathway activation incubated for 24 hrs by Quanti-Luc or Quanti-blue reagent based luminescence assay; format: cell-based
Target sequence in this assay (Q86WV6 whole entry): as above

[10] = target: T2, Stimulator of interferon genes protein; experiment: Agonist activity at STING in human THP1-Dual cells assessed as increase in TBK1 phosphorylation at 3.3 to 30 uM incubated for 2 to 4 hrs by Western blot analysis; format: cell-based; conditions: filed as agonist, dose 3.3-30 µM, time 2-4 hrs
Target sequence in this assay (Q86WV6 whole entry): as above

CT26 [11] = experiment: Immunological memory derived antitumor activity against mouse CT26 cells implanted in immunocompetent Balb/c mouse assessed as suppression of tumor growth at 500 ug, IT administered on day 1,4 and 7 followed by reinoculation of cells into tumor-free animal after 2 months and measured for 22 days post inoculation; format: functional, cell-based; conditions: dose 500.0 µg, time 22.0 day
[12] = system: Stimulator of interferon genes protein (Homo sapiens), Q86WV6 [UNDEFINED MUTATION]; experiment: Agonist activity at STING H232 variant in human 293-Dual hSTING-H232 cells assessed as activation of ISG pathway at 3.3 to 30 uM incubated for 48 hrs by Quanti-Luc or Quanti-blue reagent based luminescence assay; format: cell-based; conditions: filed as agonist, dose 3.3-30 µM
Stimulator of interferon genes protein (Homo sapiens), Q86WV6 [UNDEFINED MUTATION], sequence (Q86WV6 whole entry, looked up, change not shown): as the sequence (Q86WV6 whole entry) above

[13] = Toxicity in STING-knockout C57BL/6 mouse implanted with mouse B16-F10 cells assessed as reduction in body weight at 500 ug, IT administered on day 1,4 and 7 and measured twice per week for 8 days; format: cell-based; conditions: in vivo, other, 192 h, dose 500 µg, time 8 day
[14] = system: Stimulator of interferon genes protein (Homo sapiens), Q86WV6 [UNDEFINED MUTATION]; experiment: Agonist activity at STING R232 variant in human 293-Dual hSTING-R232 cells assessed as activation of ISG pathway at 3.3 to 30 uM incubated for 48 hrs by Quanti-Luc or Quanti-blue reagent based luminescence assay; format: cell-based; conditions: filed as agonist, dose 3.3-30 µM
[15] = target: T2, Stimulator of interferon genes protein; experiment: Agonist activity at STING in human THP1-Dual cells assessed as increase in IFN-beta mRNA expression at 3.3 to 30 uM incubated for 6 hrs by RT-PCR analysis; format: cell-based; conditions: filed as agonist, dose 3.3-30 µM
Target sequence in this assay (Q86WV6 whole entry): as above

[16] = Toxicity in C57BL/6 mouse implanted with mouse B16-F10 cells assessed as reduction in body weight at 100 mg/kg, po administered via gavage on day 1,4 and 7 and measured twice per week; format: organism-based; conditions: in vivo, 168 h, time 7 day
Mus musculus = organism: Mus musculus; experiment: Binding affinity to mouse STING R231 variant assessed as thermal stability by measuring rightward shift in fluorescence curve at 50 uM by SYPRO orange dye based differential scanning fluorimetry assay; conditions: filed as agonist
[17] = Toxicity against Balb/c mouse implanted with mouse 4T1 cells assessed as reduction in body weight at 100 mg/kg, po administered via gavage on day 1,4 and 7 and measured twice per week for 22 days; format: organism-based; conditions: in vivo, 528 h, time 22 day
[18] = Toxicity in Balb/c mouse implanted with mouse CT26 cells assessed as reduction in body weight at 500 ug, IT administered on day 1,4 and 7 and measured twice per week; format: cell-based; conditions: in vivo, other, 168 h, dose 500 µg, time 7 day
[19] = target: T1, Stimulator of interferon genes protein (Mus musculus); experiment: Agonist activity at STING in mouse RAW-Lucia ISG cells assessed as activation of ISG pathway incubated for 24 hrs by Quanti-Luc or Quanti-blue reagent based luminescence assay; format: cell-based; conditions: filed as agonist, dose 3.12-50 µM, DDE = dose-dependent effect
4T1 = experiment: Antitumor activity against mouse 4T1 cells implanted in Balb/c mouse assessed as inhibition of tumor growth at 100 mg/kg, po administered via gavage on day 1,4 and 7 and measured twice per week; format: functional, organism-based; conditions: time 7.0 day
B16-F10 [20] = experiment: Antitumor activity against mouse B16-F10 cells implanted in immunocompetent C57BL/6 mouse assessed as inhibition of tumor growth at 500 ug, IT administered on day 1,4 and 7 and measured twice per week for 8 days; format: functional, cell-based; conditions: dose 500.0 µg, time 8.0 day
CT26 [21] = experiment: Antitumor activity against mouse CT26 cells implanted in immunocompetent Balb/c mouse assessed as suppression of tumor growth at 500 ug, IT administered on day 1,4 and 7 and measured twice per week; format: functional, cell-based; conditions: dose 500.0 µg, time 7.0 day
[22] = target: T2, Stimulator of interferon genes protein; experiment: Agonist activity at STING in human THP1-Dual cells assessed as increase in IP-10 mRNA expression at 3.3 to 30 uM incubated for 6 hrs by RT-PCR analysis; format: cell-based; conditions: filed as agonist, dose 3.3-30 µM
Target sequence in this assay (Q86WV6 whole entry): as above

B16-F10 [23] = experiment: Antitumor activity against mouse B16-F10 cells implanted in immunocompetent C57BL/6 mouse assessed as inhibition of tumor growth at 100 mg/kg, po administered via gavage on day 1,4 and 7 and measured twice per week; format: functional, organism-based; conditions: time 7.0 day
[24] = Toxicity in C57BL/6 mouse implanted with mouse B16-F10 cells assessed as reduction in body weight at 500 ug, IT administered on day 1,4 and 7 and measured twice per week for 8 days; format: cell-based; conditions: in vivo, other, 192 h, dose 500 µg, time 8 day
[25] = target: T2, Stimulator of interferon genes protein; experiment: Agonist activity at STING in human THP1-Dual cells assessed as increase in IRF3 phosphorylation at 3.3 to 30 uM incubated for 2 to 4 hrs by Western blot analysis; format: cell-based; conditions: filed as agonist, dose 3.3-30 µM, time 2-4 hrs
Homo sapiens = organism: Homo sapiens; experiment: Binding affinity to human STING 293Q variant assessed as thermal stability by measuring rightward shift in fluorescence curve at 50 uM by SYPRO orange dye based differential scanning fluorimetry assay; conditions: filed as agonist

SMILES	fold change (FC) ([1]; filed as agonist)	fold change (FC) [2]	further results
COc1cc2cc(C(=O)CCC(=O)N(C)O)sc2cc1OC	0.7	15	
COc1cc2cc(C(=O)CCC(=O)NOCc3ccccc3)sc2cc1OC	0.8	16.5	
COc1cc2nc(C(=O)CCC(=O)O)[nH]c2cc1OC	1.1	0.9	
COc1cc2cc(C(=O)CCCC(=O)O)sc2cc1OC	0.8	1.1	
COc1cc2cc(-c3cc(C(=O)O)[nH]n3)sc2cc1OC	1	1	
COc1cc2cc(C(=O)CCC(=O)ONC3CCCCC3)sc2cc1OC	1.1	25	
Cc1ccc2c(=O)c3cccc(CC(=O)O)c3oc2c1C			Activity (CT26 [3]): Active
COc1cc2cc(C(CCC(=O)O)OC)sc2cc1OC (centres undefined)	0.5	1	
Nc1ncnc2c1ncn2[C@@H]1O[C@@H]2CO[P@@](=O)(S)O[C@@H]3[C@H](O)[C@@H](CO[P@@](=O)(S)O[C@H]2[C@H]1O)O[C@H]3n1cnc2c(N)ncnc21			Activity [4]: Non-Toxic; Activity [5]: Non-Toxic
COc1cc2cc(NC(=O)CC(=O)O)sc2cc1OC	1.1	1	
COc1cc2cc(C(=O)CCC(=O)N(O)Cc3ccccc3)sc2cc1OC	1.1	2.3	
COc1cc2cc(C(=O)CCC(=O)ONC(C)(C)C)sc2cc1OC		21.2	fold change (FC) [1]: < 1
COc1cc2cc(CCCC(=O)O)sc2cc1OC		1	fold change (FC) [1]: < 1
COc1cc2sc(C(=O)CC(C)(C)C(=O)O)cc2c(F)c1OCCCOc1c(OC)cc2sc(C(=O)CC(C)(C)C(=O)O)cc2c1F			IC50 [6]: 0.002 µM; EC50 [7]: 0.008 µM
COc1cc2cc(C(O)CCC(=O)O)sc2cc1OC (centres undefined)		0.9	fold change (FC) [1]: < 1
COc1cc2cc(C(=O)CCC(=O)O)sc2cc1OC	13.6	23.5	EC50 [8]: 1.72 µM; EC50 [9]: 8.14 µM
COc1cc2cc(C3=NOC(C(=O)O)C3)sc2cc1OC (centres undefined)	0.9	3.8	
COc1cc2c(cc1OC)S(=O)(=O)C(C(=O)CCC(=O)O)=C2	0.7	1.1	
COc1cc2cc(C(=O)SCC(=O)O)sc2cc1OC	1	1	
COc1cc2cc(C(=O)CCC(=O)ONC(C)C)sc2cc1OC	19.3	25.4	Activity [10]: Active; Activity (CT26 [11]): Active; Activity [12]: Active; Activity [13]: Non-Toxic; Activity [14]: Active; Activity [15]: Active; Activity [16]: Non-Toxic; Activity (Mus musculus): Active; Activity [17]: Non-Toxic; Activity [18]: Non-Toxic; EC50 [9]: 2.55 µM; Activity [19]: Dde; inhibition (4T1): Active; inhibition (B16-F10 [20]): Active; Activity (CT26 [21]): Active; Activity [22]: Active; inhibition (B16-F10 [23]): Active; Activity [24]: Non-Toxic; Activity [25]: Active; Activity (Homo sapiens): Active
CONC(=O)CCC(=O)c1cc2cc(OC)c(OC)cc2s1	2.7	24.2	
COc1cc2cc(C(=O)CCC(=O)N(O)C(C)C)sc2cc1OC	1.2	1	
COc1cc2cc(C(=O)CCC(=O)ONCc3ccccc3)sc2cc1OC	25.3	22.4	EC50 [9]: 6.14 µM
COc1cc2cc(C(=O)CCC(=O)N(C)OC)sc2cc1OC	0.5	3.2	
COc1cc2cc(C(=O)NCCC(=O)O)sc2cc1OC		1.2	
COc1cc2cc(C(=O)NCC(=O)O)sc2cc1OC		1.2	
COc1cc2cc(C(=O)CCC(=O)O)oc2cc1OC	1	0.9	
